Key:
Test in all cases: Test C greenhouse herbicide test, pre- and postemergence
Type in all cases: in vivo
[1] = system: pigweed (Amaranthus retroflexus)
Method in brief: (§1)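 Two application timings: at sowing into a soil/sand blend, and on 2–18 cm seedlings in peat-vermiculite potting mix. A non-phytotoxic, surfactant-containing solvent carried the compounds. Plants were compared with controls and rated visually on 0–100 after 13–15 d.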

[2] = system: barnyardgrass (Echinochloa crus-galli)
Method in brief: as §1

[3] = system: johnsongrass (Sorghum halepense)
Method in brief: as §1

[4] = system: lambsquarters (Chenopodium album)
Method in brief: as §1

[5] = system: morningglory (Ipomoea coccinea)
Method in brief: as §1

[6] = system: wheat (winter wheat, Triticum aestivum)
Method in brief: as §1

[7] = system: blackgrass (Alopecurus myosuroides)
Method in brief: as §1

[8] = system: ragweed (common ragweed, Ambrosia elatior)
Method in brief: as §1

corn (Zea mays) = system: corn (Zea mays)
Method in brief: as §1

soybean (Glycine max) = system: soybean (Glycine max)
Method in brief: as §1

[9] = system: velvetleaf (Abutilon theophrasti)
Method in brief: as §1

[10] = system: ryegrass, Italian (Italian ryegrass, Lolium multiflorum)
Method in brief: as §1

[11] = system: crabgrass, large (large crabgrass, Digitaria sanguinalis)
Method in brief: as §1

[12] = system: nutsedge, yellow (yellow nutsedge, Cyperus esculentus)
Method in brief: as §1

[13] = system: waterhemp (common waterhemp, Amaranthus rudis)
Method in brief: as §1

[14] = Postemergence, 125 g ai/ha, scale 0 to 100, 0 is no effect, 100 is complete control
[15] = Postemergence, 250 g ai/ha, scale 0 to 100, 0 no effect, 100 complete control, 13 to 15 d
[16] = Preemergence, 31 g ai/ha, scale 0 to 100, 0 is no effect, 100 is complete control
[17] = Preemergence, 62 g ai/ha, scale 0 to 100, 0 is no effect, 100 is complete control
[18] = Preemergence, 125 g ai/ha, scale 0 to 100, 0 is no effect, 100 is complete control
[19] = Preemergence, 250 g ai/ha, scale 0 to 100, 0 no effect, 100 complete control
[20] = postemergence, 62 g ai/ha, scale 0 to 100, 0 no effect, 100 complete control
[21] = Postemergence, 31 g ai/ha, 0 to 100 scale (0 no effect, 100 complete control)

COC(=O)Oc1cnn(C)c(=O)c1-c1c(C)sc2ccccc12 [Compound 97]
Plant response rating, Pigweed [1, 14]: 60
Plant response rating, Pigweed [1, 15]: 75
Plant response rating, Pigweed [1, 16]: 5
Plant response rating, Pigweed [1, 17]: 35
Plant response rating, Pigweed [1, 18]: 65
Pigweed plant response rating [1, 19]: 65
Pigweed plant response rating [1, 20]: 50
Barnyardgrass plant response rating [2, 21]: 0
Plant response rating, Barnyardgrass [2, 14]: 15
Plant response rating, Barnyardgrass [2, 15]: 35
Plant response rating, Barnyardgrass [2, 16]: 0
Plant response rating, Barnyardgrass [2, 17]: 0
Plant response rating, Barnyardgrass [2, 18]: 0
Barnyardgrass plant response rating [2, 19]: 35
Barnyardgrass plant response rating [2, 20]: 5
Plant response rating, Johnsongrass [3, 14]: 0
Plant response rating, Johnsongrass [3, 15]: 5
Plant response rating, Johnsongrass [3, 16]: 0
Plant response rating, Johnsongrass [3, 17]: 0
Plant response rating, Johnsongrass [3, 18]: 0
Johnsongrass plant response rating [3, 19]: 0
Johnsongrass plant response rating [3, 20]: 0
Plant response rating, Lambsquarters [4, 14]: 50
Plant response rating, Lambsquarters [4, 15]: 60
Plant response rating, Lambsquarters [4, 16]: 0
Plant response rating, Lambsquarters [4, 17]: 0
Plant response rating, Lambsquarters [4, 18]: 20
Lambsquarters plant response rating [4, 19]: 25
Lambsquarters plant response rating [4, 20]: 20
Plant response rating, Morningglory [5, 14]: 30
Plant response rating, Morningglory [5, 15]: 30
Plant response rating, Morningglory [5, 16]: 25
Plant response rating, Morningglory [5, 17]: 30
Plant response rating, Morningglory [5, 18]: 20
Morningglory plant response rating [5, 19]: 30
Morningglory plant response rating [5, 20]: 40
Plant response rating, Wheat [6, 14]: 0
Plant response rating, Wheat [6, 15]: 0
Plant response rating, Wheat [6, 16]: 0
Plant response rating, Wheat [6, 17]: 0
Plant response rating, Wheat [6, 18]: 0
Wheat plant response rating [6, 19]: 0
Wheat plant response rating [6, 20]: 0
Blackgrass plant response rating [7, 21]: 0
Plant response rating, Blackgrass [7, 14]: 0
Plant response rating, Blackgrass [7, 15]: 0
Plant response rating, Blackgrass [7, 16]: 0
Plant response rating, Blackgrass [7, 17]: 0
Plant response rating, Blackgrass [7, 18]: 0
Blackgrass plant response rating [7, 19]: 5
Blackgrass plant response rating [7, 20]: 0
Plant response rating, Ragweed [8, 14]: 25
Plant response rating, Ragweed [8, 15]: 35
Plant response rating, Ragweed [8, 16]: 0
Plant response rating, Ragweed [8, 17]: 0
Plant response rating, Ragweed [8, 18]: 0
Ragweed plant response rating [8, 19]: 10
Ragweed plant response rating [8, 20]: 10
Corn plant response rating (corn (Zea mays); [21]): 0
Plant response rating, Corn (corn (Zea mays); [14]): 0
Plant response rating, Corn (corn (Zea mays); [15]): 5
Plant response rating, Corn (corn (Zea mays); [16]): 5
Plant response rating, Corn (corn (Zea mays); [17]): 0
Plant response rating, Corn (corn (Zea mays); [18]): 0
Corn plant response rating (corn (Zea mays); [19]): 0
Corn plant response rating (corn (Zea mays); [20]): 0
Plant response rating, Soybean (soybean (Glycine max); [14]): 5
Plant response rating, Soybean (soybean (Glycine max); [15]): 5
Plant response rating, Soybean (soybean (Glycine max); [16]): 15
Plant response rating, Soybean (soybean (Glycine max); [17]): 10
Plant response rating, Soybean (soybean (Glycine max); [18]): 10
Soybean plant response rating (soybean (Glycine max); [19]): 20
Soybean plant response rating (soybean (Glycine max); [20]): 0
Plant response rating, Velvetleaf [9, 14]: 10
Plant response rating, Velvetleaf [9, 15]: 30
Plant response rating, Velvetleaf [9, 16]: 0
Plant response rating, Velvetleaf [9, 17]: 0
Plant response rating, Velvetleaf [9, 18]: 20
Velvetleaf plant response rating [9, 19]: 30
Velvetleaf plant response rating [9, 20]: 20
Plant response rating, Ryegrass, Italian [10, 14]: 50
Plant response rating, Ryegrass, Italian [10, 15]: 55
Plant response rating, Ryegrass, Italian [10, 16]: 5
Plant response rating, Ryegrass, Italian [10, 17]: 5
Plant response rating, Ryegrass, Italian [10, 18]: 30
Ryegrass, Italian plant response rating [10, 19]: 30
Ryegrass, Italian plant response rating [10, 20]: 30
Plant response rating, Crabgrass, Large [11, 14]: 10
Plant response rating, Crabgrass, Large [11, 15]: 25
Plant response rating, Crabgrass, Large [11, 16]: 0
Plant response rating, Crabgrass, Large [11, 17]: 0
Plant response rating, Crabgrass, Large [11, 18]: 0
Crabgrass, Large plant response rating [11, 19]: 60
Crabgrass, Large plant response rating [11, 20]: 5
Plant response rating, Nutsedge, Yellow [12, 14]: 0
Plant response rating, Nutsedge, Yellow [12, 15]: 5
Plant response rating, Nutsedge, Yellow [12, 16]: 0
Plant response rating, Nutsedge, Yellow [12, 17]: 0
Plant response rating, Nutsedge, Yellow [12, 18]: 0
Nutsedge, Yellow plant response rating [12, 19]: 0
Nutsedge, Yellow plant response rating [12, 20]: 0
Plant response rating, Waterhemp [13, 14]: 5
Plant response rating, Waterhemp [13, 15]: 10
Plant response rating, Waterhemp [13, 16]: 0
Plant response rating, Waterhemp [13, 17]: 10
Plant response rating, Waterhemp [13, 18]: 10
Waterhemp plant response rating [13, 19]: 20
Waterhemp plant response rating [13, 20]: 5

Source: patent US10597388B2, “Pyridazinone herbicides” (FMC CORPORATION, priority 2014, dated 2020)
